In patent US20180273528A1 (LES LABORATOIRES SERVIER, priority 2015, published 2018) one finds IC50 data, which are given here for 25 compounds.

The IC50 is the concentration at which inhibition is half-maximal.

Test [1] concerns the target T1, His-TEV-DYRK1A Kinase domain (aa127-485) (Homo sapiens, UniProt Q13627).
T1 construct: His-TEV-DYRK1A Kinase domain (aa127-485); His tag (N); TEV protease cleavage site (N)
Kind of test: Kinase ADP assay (ADP Hunter), DYRK1A kinase domain. It is filed as biochemical. The conditions noted are these: 20 μM ATP. The method, then:
The enzyme reaction was conducted in assay buffer (pH 7.4), containing 15 mM Hepes; 20 mM NaCl; 1 mM EGTA; 10 mM MgCl2; 0.02% Tween20 and 0.1 mg/ml Bovine-y-globulin. Test compounds of the invention were added in reaction buffer in a range of concentrations for 10 minutes at 30° C. in the presence of 20 nM DYRK1A enzyme, 40 μM peptide substrate and 20 μM ATP. Detection reagents (DiscoveRx 90-0083), ADP Hunter Plus Reagent A and then ADP Hunter Plus Reagent B were added. After a following 20 minutes incubation at 30° C., ADP Hunter Plus Stop Solution was added. The fluorescence intensity was measured at 590 nm.

The target of test [2] is T2, DYRK1A (Homo sapiens, UniProt Q13627). Kind of test: Kinase TR-FRET assay, DYRK1A. The conditions noted are these: full-length human kinase, 10 μM ATP. More on the design: full-length, wild-type human DYRK1A (NM_001396) with an HA tag; expressed in transfected cells; host or cells: human U2-OS osteosarcoma cells, transient transfection of a pcDNA3.1 plasmid. It is filed as biochemical. How it is done:
Inhibition of the enzymatic activity of human kinases was evaluated in a Time-Resolved Fluorescence Resonance Energy Transfer (TR-FRET) assay in 384-well reaction plates. […] Test compounds of the invention were added in reaction buffer at a range of concentrations from 0.1 nM to 30 μM. Following addition of EDTA (Sigma E7889, 10 mM) to stop the reaction, Europium-labelled mouse monoclonal antibody recognizing phospho-Thr232 in MBP (Perkin Elmer TRF0201, 1 nM) was added.
For orientation: In TR-FRET formats the signal depends on donor and acceptor labels being close together.

For test [3], the target named is T2, DYRK1A. Kind of test: Cellular DYRK1 autophosphorylation assay in U2-OS cells. The test is classed as cell-based. More on the design: full-length, wild-type human DYRK1A (NM_001396) with an HA tag; expressed in transfected cells; host or cells: human U2-OS osteosarcoma cells, transient transfection of a pcDNA3.1 plasmid. The conditions noted are these: U2-OS cells transfected with HA-tagged human DYRK1A, 5 hours exposure; read-out: IC50 (μM) P-Ser520-Dyrk1A -Cell assay. How it is done: On day 2, cells were exposed to a range of concentrations of the test compounds of the invention for 5 hours. […] The relative levels of phospho-Ser520-DYRK1A were assayed using either western blotting or the Mesoscale ELISA platform. For analysis by western blot, lysates were diluted into Laemmli sample buffer (Bio-Rad) containing 5% v/v β-mercaptoethanol, heated for 5 min at 95° C., and resolved on Tris-glycine gels or NuPage Bis-Tris gels (Novex; Invitrogen). Biotinylated molecular weight standards (Cell Signaling Technology) were included in all gels. Proteins were transferred to nitrocellulose membranes (Hybond, ECL; Amersham), which were blocked in Tris-buffered saline/0.1% tween 20 (TBST) containing 5% milk, and probed at 4° C. overnight with anti-phospho-Ser520-DYRK1A antibody (Eurogentec SE6974-75; 0.23 μg/ml in 5% BSA) or anti DYRK1A antibody (Abnova H00001859; 0.5 μg/ml in 5% milk). Peroxidase-conjugated secondary antibodies were diluted into 5% milk and applied to membranes for 1 h at 20° C. Chemiluminescence detection was performed using the ECL plus western blotting detection kit (Amersham) and was recorded on ECL plus hyperfilm (Amersham). Blots were scanned using the Bio-Rad GS-800 calibrated densitometer and quantitative analysis of western blots was performed using TotalLab software (Amersham). IC50 values for inhibition of phospho-Ser520-DYRK1A were calculated from dose-response curves plotting the ratio between phospho-Ser520-DYRK1A and total DYRK1A signals at each concentration. […] Anti-phospho-Ser520-DYRK1A antibody (Eurogentec SE6974-75; […]) and anti DYRK1A antibody (Abnova H00001859; 3 μg/ml) was then added for 1 hour at RT, followed by addition of Sulfa-TAG anti-rabbit detection antibody (ref MSD R32AB; 1 μg/ml) and Sulfa-TAG anti-mouse detection antibody (ref MSD R32-AC-1; 1 μg/ml). After a further 1 hour, Read Buffer was added and plates were read on the Sector Imager 2400 (Mesoscale). IC50 values for inhibition of phospho-Ser520-DYRK1A were calculated from dose-response curves.

Regarding `Cc1nc2ccc(-c3cc(N)nc(N)c3)nc2n1Cc1ccc(OC(F)F)cc1` [Example 43, 4-{3-[4-(difluoromethoxy)benzyl]-2-methyl-3H-imidazo[4,5-b]pyridin-5-yl}pyridine-2,6-diamine], the IC50 in test [1] amounted to 0.109 µM; in test [2], 0.116 µM.
Turning to `CCC(c1ccccc1)n1c(C)nc2ccc(-c3cc(N)nc(N)c3)nc21` (centres unmarked) [Example 67, 4-[2-methyl-3-(1-phenylpropyl)-3H-imidazo[4,5-b]pyridin-5-yl]pyridine-2,6-diamine], the values for the IC50 in test [1] and in test [2] were 0.903 µM and 0.104 µM, respectively.
With `Cc1nc2ccc(-c3cc(N)nc(N)c3)nc2n1C1CC2CCC1C2` (centres unmarked) [Example 155, 4-[3-(bicyclo[2.2.1]hept-2-yl)-2-methyl-3H-imidazo[4,5-b]pyridin-5-yl]pyridine-2,6-diamine], the IC50 in test [1] was determined as 0.005 µM; in test [2], 0.012 µM.
As for `COc1cccc2c1CCC(n1c(C)nc3ccc(-c4cc(N)nc(N)c4)nc31)C2` (centres unmarked) [Example 93, 4-[3-(5-methoxy-1,2,3,4-tetrahydronaphthalen-2-yl)-2-methyl-3H-imidazo[4,5-b]pyridin-5-yl]pyridine-2,6-diamine], the concentration for half-maximal inhibition (IC50) in test [1] was found to be 0.007 µM; in test [3] it was 0.107 µM.
The matching figures for `Cc1nc2ccc(-c3cc(N)nc(N)c3)nc2n1C[C@H](C)Sc1ccccc1` (single isomer, unassigned) [Example 135]: 0.016 µM and 0.098 µM.
`Cc1nc2ccc(-c3cc(N)nc(N)c3)nc2n1C[C@H](C)Oc1ncccc1Br` (single isomer, unassigned) [Example 182]: the 50% inhibitory concentration (IC50) in test [1] amounted to 0.026 µM; in test [3], 0.175 µM.
Consider `Cc1nc2ccc(-c3cc(N)nc(N)c3)nc2n1CC1CC1(C)C` (centres unmarked) [Example 99, 4-{3-[(2,2-dimethylcyclopropyl)methyl]-2-methyl-3H-imidazo[4,5-b]pyridin-5-yl}pyridine-2,6-diamine], for which the results for the IC50 in test [1] and in test [3] were 0.016 µM and 0.104 µM, respectively.
Turning to `Cc1nc2ccc(-c3cc(N)nc(N)c3)nc2n1CCOc1ccc(Cl)cn1` [Example 164, 4-(3-{2-[(5-chloropyridin-2-yl)oxy]ethyl}-2-methyl-3H-imidazo[4,5-b]pyridin-5-yl)pyridine-2,6-diamine], the concentration for half-maximal inhibition (IC50) in test [1] stood at 0.032 µM; in test [3], 0.152 µM.
`Cc1nc2ccc(-c3cc(N)nc(N)c3)nc2n1CCOc1ncccc1Cl` [Example 166, 4-(3-{2-[(3-chloropyridin-2-yl)oxy]ethyl}-2-methyl-3H-imidazo[4,5-b]pyridin-5-yl)pyridine-2,6-diamine]: the half-inhibitory concentration (IC50) is 0.085 µM in test [1] and 0.25 µM in test [3].
The matching figures for `Cc1nc2ccc(-c3cc(N)nc(N)c3)nc2n1CCOc1cccc(C(F)F)n1` [Example 173, 4-[3-(2-{[6-(difluoromethyl)pyridin-2-yl]oxy}ethyl)-2-methyl-3H-imidazo[4,5-b]pyridin-5-yl]pyridine-2,6-diamine]: 0.007 µM and 0.017 µM.
As to `Cc1nc2ccc(-c3cc(N)nc(N)c3)nc2n1CCOc1cccc(F)n1` [Example 167, 4-(3-{2-[(6-fluoropyridin-2-yl)oxy]ethyl}-2-methyl-3H-imidazo[4,5-b]pyridin-5-yl)pyridine-2,6-diamine], the IC50 in test [1] and in test [3] was 0.011 µM in each case.
Turning to `Cc1nc2ccc(-c3cc(N)nc(N)c3)nc2n1Cc1ccnc(F)c1` [Example 84, 4-{3-[(2-fluoropyridin-4-yl)methyl]-2-methyl-3H-imidazo[4,5-b]pyridin-5-yl}pyridine-2,6-diamine], the IC50 in test [1] was determined as 0.019 µM; in test [3], 0.113 µM.
For `Cc1nc2ccc(-c3cc(N)nc(N)c3)nc2n1C[C@H](C)Oc1ccccc1Cl` (single isomer, unassigned) [Example 117], the half-maximal inhibitory concentration (IC50) turned out to be 0.006 µM in test [1] and 0.075 µM in test [3].
The matching figures for `Cc1nc2ccc(-c3cc(N)nc(N)c3)nc2n1[C@@H]1C[C@@H]1Cc1ccccc1` (single isomer, unassigned) [Example 140]: 0.007 µM and 0.024 µM.
The matching figures for `Cc1ccccc1O[C@@H](C)Cn1c(C)nc2ccc(-c3cc(N)nc(N)c3)nc21` (single isomer, unassigned) [Example 131]: 0.016 µM and 0.045 µM.
Take `Cc1nc2ccc(-c3cc(N)nc(N)c3)nc2n1CCc1ccccc1` [Example 83, 4-[2-methyl-3-(2-phenylethyl)-3H-imidazo[4,5-b]pyridin-5-yl]pyridine-2,6-diamine]: the values for the half-maximal inhibitory concentration (IC50) in test [1] and in test [3] were 0.007 µM and 0.037 µM, respectively.
`Cc1nc2ccc(-c3cc(N)nc(N)c3)nc2n1C[C@@H](C)Oc1ccc(F)cn1` (single isomer, unassigned) [Example 179]: the IC50 in test [1] is 0.023 µM; in test [3] it was 0.237 µM.
Regarding `Cc1nc2ccc(-c3cc(N)nc(N)c3)nc2n1C[C@H](C)Oc1cccc(Cl)n1` (single isomer, unassigned) [Example 176], the IC50 worked out at 0.093 µM in test [1] and 0.223 µM in test [3].
As to `Cc1ccc(OCCn2c(C)nc3ccc(-c4cc(N)nc(N)c4)nc32)cc1` [Example 208, 4-{2-methyl-3-[2-(4-methylphenoxy)ethyl]-3H-imidazo[4,5-b]pyridin-5-yl}pyridine-2,6-diamine], the half-inhibitory concentration (IC50) in test [1] was 0.016 µM; in test [3] it was 0.155 µM.
As for `Cc1ccccc1O[C@H](C)Cn1c(C)nc2ccc(-c3cc(N)nc(N)c3)nc21` (single isomer, unassigned) [Example 132], the half-inhibitory concentration (IC50) was found to be 0.038 µM in test [1] and 0.207 µM in test [3].
The matching figures for `Cc1nc2ccc(-c3cc(N)nc(N)c3)nc2n1CCOc1ccc(Br)cn1` [Example 170, 4-(3-{2-[(5-bromopyridin-2-yl)oxy]ethyl}-2-methyl-3H-imidazo[4,5-b]pyridin-5-yl)pyridine-2,6-diamine]: 0.035 µM and 0.131 µM.
On to `Cc1nc2ccc(-c3cc(N)nc(N)c3)nc2n1CCOc1cccc(C(F)(F)F)n1` [Example 194, 4-[2-methyl-3-(2-{[6-(trifluoromethyl)pyridin-2-yl]oxy}ethyl)-3H-imidazo[4,5-b]pyridin-5-yl]pyridine-2,6-diamine], for which the IC50 in test [1] stood at 0.007 µM; in test [3], 0.02 µM.
As to `COc1cccc(O[C@H](C)Cn2c(C)nc3ccc(-c4cc(N)nc(N)c4)nc32)c1` (single isomer, unassigned) [Example 126], the IC50 in test [1] was found to be 0.055 µM; in test [3] it was 0.271 µM.
On to `Cc1cccc(OCCn2c(C)nc3ccc(-c4cc(N)nc(N)c4)nc32)n1` [Example 195, 4-(2-methyl-3-{2-[(6-methylpyridin-2-yl)oxy]ethyl}-3H-imidazo[4,5-b]pyridin-5-yl)pyridine-2,6-diamine], for which the results for the IC50 in test [1] and in test [3] were 0.013 µM and 0.106 µM, respectively.
`Cc1nc2ccc(-c3cc(N)nc(N)c3)nc2n1[C@H]1C[C@H]1Cc1ccccc1` (single isomer, unassigned) [Example 137]: the concentration for half-maximal inhibition (IC50) in test [1] is 0.048 µM; in test [3], 0.197 µM.
